Assay results taken from patent EP0033980A1, “Derivatives of 2-methylpropionic acid, process for their preparation and pharmaceutical compositions containing them” (SCHIAPPARELLI FARMACEUTICI S.p.A., priority 1980, dated 1981).

Tested on: Triglycerid- und Cholesteringehaltes im Blut
Assay: Reduction of blood triglyceride and cholesterol content after 10 days of daily peroral treatment, versus untreated controls
Assay type: in vivo
Details: Ratten, 10 Tage, vs. Blindversuche
Source text: Diese Wirkungen wurden gegenüber der in der Therapie der Hyperlipidämie (übermäßiger Lipidgehalt im Blut) und Hypercholesterinämie (übermäßiger Cholesteringehalt im Blut) verbreitet angewandten und anerkannt gut wirksamen bekannten Vergleichssubstanz 2-(4'-Chlorphenoxy)-2-me- thylpropionsäure [Clofibrat] bestimmt.
Es wurden vorherbestimmte tägliche Dosen einer erfin-dungsgemäßen Verbindung Laboratoriumstieren (üblicherweise in Gruppen von je 6 Tiere unterteilten Ratten) peroral verabreicht, während die Vergleichssubstanz 2-(4'-Chlor- phenoxy)-2-methylpropionsäure [Clofibrat] in einser Dosis von 130 mg/kg/Tag ebenfalls peroral verabreicht wurde. Die Behandlung wurde 10 Tage fortgesetzt, dann wurden die Tiere geopfert und ihr Blut wurde gesammelt und der Bestimmung seines Triglycerid- und Cholesteringehaltes unterzogen. Die erhaltenen Ergebnisse, ausgedrückt als prozentuale Verminderung des Triglycerid- und Cholesteringehaltes im Blut (prozentuale Hemmung der Bildung des Triglycerid- und Cholesteringehaltes im Blut) gegenüber den Blindversuchen (das heißt den Ratten, welchen weder eine erfindungsgemäße Verbindung noch die Vergleichssubstanz verabreicht wurde), sind in der folgenden Tabelle zusammengestellt.

CCOC(=O)C(C)(C)Oc1ccc(-c2ccc(F)cc2F)cc1 [Beispiel 2, 2-(2",4"-Difluordiphenyl-4'-yloxy)-2--methylpropionsäureäthylester]
Verminderung des Cholesteringehaltes in % (peroral, 35 mg/kg/Tag): 23% | Verminderung des Triglyceridgehaltes in % (peroral, 35 mg/kg/Tag): 36% | Verminderung des Cholesteringehaltes in % (peroral, 50 mg/kg/Tag): 30% | Verminderung des Triglyceridgehaltes in % (peroral, 50 mg/kg/Tag): 29% | Verminderung des Cholesteringehaltes in % (peroral, 2,5 mg/kg/Tag): 11% | Verminderung des Triglyceridgehaltes in % (peroral, 2,5 mg/kg/Tag): 22%
